Experimental data taken from US20140335184A1, “NANOPARTICLE ASSEMBLY, PREPARATION THEREOF, AND ACTIVE MATERIAL DELIVERING COMPOSITE COMPRISING THE SAME” (priority 2012, published 2014).

Assay: Measurement of decrease in fluorescence of drug delivering composite
Type: physicochemical
Conditions: measured as a function of time, FIGS. 16A and 16B
Description: FIGS. 16A and 16B are graphs illustrating a measurement of a decrease in a fluorescence of the drug delivering composite prepared in Example 6.
FIG. 16A is a graph illustrating the measurement of a change in fluorescence of a doxorubicin solution according to time, and FIG. 16B is a graph illustrating the measurement of changes in fluorescence of the doxorubicin solution and the drug delivering composite according to an embodiment. […] However, a reduction in fluorescence of doxorubicin alone was not observed when measured as a function of time.

For `COc1cccc2c1C(=O)c1c(O)c3c(c(O)c1C2=O)C[C@@](O)(C(=O)CO)C[C@@H]3O[C@H]1C[C@H](N)[C@H](O)[C@H](C)O1` [doxorubicin], the Change in fluorescence was “not observed”.
